Experimental data published in patent publication US11253519B2, “Composition used to improve symptoms of autism spectrum disorder, and method using same for improving symptoms of autism spectrum disorder” (RENASCIENCE CO., LTD., priority 2016, dated 2022).

Tested on: ASD patient
Experiment: ABC-J aberrant behavior checklist (58 items, each rated 0 no problems to 3 marked; 5 subscales) in ASD patients before and after oral intake of test drug
Assay type: in vivo, human
Set-up: key to ABC-J subscale total score: Hyperactivity / ABC-J subscale total score: Inappropriate Speech: subscale total: sum of its item scores (each 0 = none to 3 = marked)
Description: ABC-J is an aberrant behavior checklist available in Japan, which was made by translating and standardizing the revised version of the aberrant behavior checklist developed by American psychologists Aman M. G. and Singh N. N. as a rating scale for quantitatively assessing behavioral disorders associated with intellectual disability and developmental disorder. ABC-J is composed of 58 items that represent problematic behaviors, and a subject is assessed for each item on the following four-rating scale: there are no problems (0 points); the degree of problematic behavior is mild (1 point); the degree of problematic behavior is moderate (2 points); and the degree of problematic behavior is marked (3 points). These 58 items are classified into five subscales: I. Irritability (15 items); II. Lethargy (16 items); III. Stereotypical Behavior (7 items); IV. Hyperactivity (16 items); and V. Inappropriate Speech (4 items). Assessment can be made for each subscale (Ministry of Health, Labour and Welfare, Year 2012 Total Welfare Promotion Project for People with Disabilities, Guidelines for Support for and Assessment of Children with Developmental Disabilities, Asperger Society Japan (a specified non-profit organization), March 2013). […]
An ASD patient (body weight: 45 kg) orally took the test drug detailed below every day for 8 weeks, and their symptoms of ASD were assessed by the diagnostic method described below before (before the start of administration) and 8 weeks after the intake of the drug (8 weeks after the start of administration).
The symptoms of ASD of the ASD patient were assessed based on the scores of ABC-J, PARS-TR, and RSB-R (Japanese version) by a medical doctor who is a researcher of ASD. […]

[1] = case 1, 600 mg/day oral + fursultiamine 25 mg/day, 1 month after start, before administration: 0
[2] = case 1, 600 mg/day oral + fursultiamine 25 mg/day, 1 month after start, before administration: 1
[3] = case 1, 600 mg/day oral + fursultiamine 25 mg/day, 1 month after start, before administration: 2
[4] = case 1, 600 mg/day oral + fursultiamine 25 mg/day, 1 month after start, before administration: 3
[5] = case 2, 600 mg/day oral + fursultiamine 25 mg/day, 17 days after start, before administration: 0
[6] = case 2, 600 mg/day oral + fursultiamine 25 mg/day, 17 days after start, before administration: 1
[7] = case 2, 600 mg/day oral + fursultiamine 25 mg/day, 17 days after start, before administration: 2
[8] = case 2, 600 mg/day oral + fursultiamine 25 mg/day, 17 days after start, before administration: 4
[9] = case 4, 800 mg/day oral + fursultiamine 25 mg/day, 8 weeks

## Cc1ncc(CO)c(CN)c1O.Cl.Cl [pyridoxamine dihydrochloride]
Case 1, 600 mg/day oral + fursultiamine 25 mg/day, 1 month
  ABC-J symptoms across the 5 subscales I to V compared with before taking the drug: significant improvement in symptoms
[1]
  ABC-J item 2 score (Irritability): 0
  ABC-J item 3 score (Lethargy): 0
  ABC-J item 4 score (Irritability): 1
  ABC-J item 5 score (Lethargy): 0
  ABC-J item 9 score (Inappropriate Speech): 0
  ABC-J item 13 score (Hyperactivity): 0
  ABC-J item 16 score (Lethargy): 0
  ABC-J item 32 score (Lethargy): 1
  ABC-J item 33 score (Inappropriate Speech): 0
  ABC-J item 34 score (Irritability): 0
  ABC-J item 42 score (Lethargy): 0
  ABC-J item 47 score (Irritability): 0
  ABC-J item 50 score (Irritability): 0
  ABC-J item 52 score (Irritability): 0
  ABC-J item 53 score (Lethargy): 0
  ABC-J item 54 score (Hyperactivity): 0
  ABC-J item 55 score (Lethargy): 0
  ABC-J item 56 score (Hyperactivity): 0
[2]
  ABC-J item 8 score (Irritability): 0
  ABC-J item 12 score (Lethargy): 1
  ABC-J item 17 score (Stereotypical Behavior): 0
  ABC-J item 18 score (Hyperactivity): 0
  ABC-J item 19 score (Irritability): 0
  ABC-J item 20 score (Lethargy): 1
  ABC-J item 21 score (Hyperactivity): 0
  ABC-J item 24 score (Hyperactivity): 0
  ABC-J item 25 score (Irritability): 0
  ABC-J item 26 score (Lethargy): 0
  ABC-J item 28 score (Hyperactivity): 0
  ABC-J item 29 score (Irritability): 0
  ABC-J item 30 score (Lethargy): 0
  ABC-J item 31 score (Hyperactivity): 0
  ABC-J item 36 score (Irritability): 0
  ABC-J item 37 score (Lethargy): 0
  ABC-J item 40 score (Lethargy): 1
  ABC-J item 41 score (Irritability): 0
  ABC-J item 43 score (Lethargy): 0
  ABC-J item 46 score (Inappropriate Speech): 0
  ABC-J item 48 score (Hyperactivity): 1
  ABC-J item 51 score (Hyperactivity): 0
  ABC-J item 57 score (Irritability): 0
  ABC-J item 58 score (Lethargy): 1
[3]
  ABC-J item 1 score (Hyperactivity): 1
  ABC-J item 7 score (Hyperactivity): 0
  ABC-J item 10 score (Irritability): 0
  ABC-J item 14 score (Irritability): 0
  ABC-J item 15 score (Hyperactivity): 1
  ABC-J item 22 score (Inappropriate Speech): 1
  ABC-J item 23 score (Lethargy): 1
  ABC-J item 27 score (Stereotypical Behavior): 1
  ABC-J item 35 score (Stereotypical Behavior): 1
  ABC-J item 38 score (Hyperactivity): 1
  ABC-J item 39 score (Hyperactivity): 0
  ABC-J item 44 score (Hyperactivity): 0
  ABC-J item 45 score (Stereotypical Behavior): 1
  ABC-J item 49 score (Stereotypical Behavior): 1
[4]
  ABC-J item 6 score (Stereotypical Behavior): 1
  ABC-J item 11 score (Stereotypical Behavior): 1
  ABC-J subscale total score: Inappropriate Speech: 1
Case 1, 600 mg/day oral + fursultiamine 25 mg/day, 1 month after start, before administration: 10
  ABC-J subscale total score: Lethargy: 6
Case 1, 600 mg/day oral + fursultiamine 25 mg/day, 1 month after start, before administration: 11
  ABC-J subscale total score: Irritability: 1
Case 1, 600 mg/day oral + fursultiamine 25 mg/day, 1 month after start, before administration: 15
  ABC-J subscale total score: Stereotypical Behavior: 6
Case 1, 600 mg/day oral + fursultiamine 25 mg/day, 1 month after start, before administration: 19
  ABC-J subscale total score: Hyperactivity: 4
Case 2, 600 mg/day oral + fursultiamine 25 mg/day, 17 days
  ABC-J symptoms across all of the 5 subscales I to V: significantly improved symptoms
[5]
  ABC-J item 2 score (Irritability): 0
  ABC-J item 7 score (Hyperactivity): 0
  ABC-J item 8 score (Irritability): 0
  ABC-J item 9 score (Inappropriate Speech): 0
  ABC-J item 11 score (Stereotypical Behavior): 0
  ABC-J item 13 score (Hyperactivity): 0
  ABC-J item 17 score (Stereotypical Behavior): 0
  ABC-J item 18 score (Hyperactivity): 0
  ABC-J item 19 score (Irritability): 0
  ABC-J item 27 score (Stereotypical Behavior): 0
  ABC-J item 28 score (Hyperactivity): 0
  ABC-J item 29 score (Irritability): 0
  ABC-J item 31 score (Hyperactivity): 0
  ABC-J item 32 score (Lethargy): 0
  ABC-J item 33 score (Inappropriate Speech): 0
  ABC-J item 34 score (Irritability): 0
  ABC-J item 36 score (Irritability): 0
  ABC-J item 38 score (Hyperactivity): 0
  ABC-J item 39 score (Hyperactivity): 0
  ABC-J item 41 score (Irritability): 0
  ABC-J item 44 score (Hyperactivity): 0
  ABC-J item 47 score (Irritability): 0
  ABC-J item 48 score (Hyperactivity): 0
  ABC-J item 49 score (Stereotypical Behavior): 0
  ABC-J item 50 score (Irritability): 0
  ABC-J item 51 score (Hyperactivity): 0
  ABC-J item 52 score (Irritability): 0
  ABC-J item 53 score (Lethargy): 0
  ABC-J item 54 score (Hyperactivity): 0
  ABC-J item 55 score (Lethargy): 0
  ABC-J item 56 score (Hyperactivity): 0
  ABC-J item 57 score (Irritability): 0
[6]
  ABC-J item 1 score (Hyperactivity): 1
  ABC-J item 4 score (Irritability): 0
  ABC-J item 10 score (Irritability): 0
  ABC-J item 12 score (Lethargy): 0
  ABC-J item 15 score (Hyperactivity): 1
  ABC-J item 20 score (Lethargy): 0
  ABC-J item 21 score (Hyperactivity): 0
  ABC-J item 23 score (Lethargy): 0
  ABC-J item 24 score (Hyperactivity): 0
  ABC-J item 26 score (Lethargy): 1
  ABC-J item 30 score (Lethargy): 0
  ABC-J item 35 score (Stereotypical Behavior): 0
  ABC-J item 37 score (Lethargy): 0
  ABC-J item 40 score (Lethargy): 0
  ABC-J item 43 score (Lethargy): 0
  ABC-J item 58 score (Lethargy): 0
[7]
  ABC-J item 3 score (Lethargy): 0
  ABC-J item 5 score (Lethargy): 1
  ABC-J item 6 score (Stereotypical Behavior): 1
  ABC-J item 14 score (Irritability): 0
  ABC-J item 16 score (Lethargy): 1
  ABC-J item 22 score (Inappropriate Speech): 1
  ABC-J item 25 score (Irritability): 0
  ABC-J item 45 score (Stereotypical Behavior): 1
  ABC-J item 46 score (Inappropriate Speech): 1
Case 2, 600 mg/day oral + fursultiamine 25 mg/day, 17 days after start, before administration: 3
  ABC-J item 42 score (Lethargy): 2
[8]
  ABC-J subscale total score: Hyperactivity: 2
  ABC-J subscale total score: Inappropriate Speech: 2
Case 2, 600 mg/day oral + fursultiamine 25 mg/day, 17 days after start, before administration: 5
  ABC-J subscale total score: Stereotypical Behavior: 2
Case 2, 600 mg/day oral + fursultiamine 25 mg/day, 17 days after start, before administration: 6
  ABC-J subscale total score: Irritability: 0
Case 2, 600 mg/day oral + fursultiamine 25 mg/day, 17 days after start, before administration: 18
  ABC-J subscale total score: Lethargy: 5
Case 3, 800 mg/day oral + fursultiamine 25 mg/day, 8 weeks, FIG. 7A
  total score of all ABC-J items compared with before administration: decreased
Case 3, 800 mg/day oral + fursultiamine 25 mg/day, 8 weeks, FIG. 7B
  ABC-J total score of each of the 5 subscales compared with before administration: decreased
Case 4 (no speech), 800 mg/day oral + fursultiamine 25 mg/day, 8 weeks, FIG. 9A
  total score of all items of ABC-J compared with before administration: decreased
[9]
  severity of irritability and self-harming behavior: alleviated the severity
  stereotypical behaviors (DSM-5 diagnostic criteria B(1)): significantly improved
Case 4, 800 mg/day oral + fursultiamine 25 mg/day, 8 weeks, Inappropriate Speech zero because no speech, FIG. 9B
  ABC-J subtotal score of the four subscales compared with before administration: decreased
